# Assay results as given in patent US4851209A, “Diagnostic procedures using radio labeled sucralfate and derivatives or precursors thereof” (The Regents of the University of California, priority 1985, dated 1989).
# Experiments:
# duodenal ulcers = details: several clinical trials; cited from earlier work
# [1] = tested on: duodenal and gastric ulcers, gastric erosions, mucosa; details: cited from earlier work
# pepsin = details: cited from earlier work
# [2] = stability of tagged material in solution; format: physicochemical; details: one gram per 10 cc of normal saline
# Excerpt: The tagged material was stable in a solution comprising one gram per 10 cc of normal saline. The solution was given orally as a 10 cc dose. […] A good analogy would be the stars at night vs. the stars during the day. The stars are there in both instances. However, the sky is so bright during the day that star-light is simply lost in the background. […] The potassium salt used for imaging ulcers in Example III can be replaced by other cations compatible in the human body including alkali metal and alkaline earth metal cations such as sodium and calcium.
Substance,safety and efficacy in healing duodenal ulcers (duodenal ulcers),binding to ulcerated areas in the upper G. I. tract ([1]; FDA approved drug),duration of action ([1]; animal data),binding to uninjured mucosa ([1]; compared with defective mucosa),binding to duodenal and gastric ulcers and to gastric erosions ([1]; erosions produced by ethanol and anti-inflammatory drugs),inhibition of the action of pepsin (pepsin),stability in solution [2]
Sucralfate,shown the safety and efficacy,bind selectively to ulcerated areas,sustained,to a much lesser extent,binds to duodenal and gastric ulcers and to gastric erosions,inhibits the action of pepsin,
potassium sucrose sulfate [Tc-99m labeled potassium sucrose sulfate],,,,,,,stable
